What is called melting point is the temperature, or range, at which the solid turns liquid. On to `OC(c1ccc(Cl)cc1)c1cccnc1-n1ccnc1` (centres undefined), for which the melting point fell in the range of 133 to 134 °C.
As to `CCCOc1cc(-c2cc3c(=O)[nH]c(C)nc3cc2C(C)C)ccc1Cl`, the melting point was found to be 236 °C.
Next, `CCCCCN1C(=O)C(O)(c2cc3c(cc2O)OCO3)c2cnccc21` (centres undefined): 193 to 195 °C; `COc1ccc(C(SC)c2ccc(OC)cc2)cc1`: 62 to 63 °C.
In turn, `N#Cc1cc(-c2ccoc2)c2ccc(COc3cc(F)cc(-c4ccc(F)cc4)c3)cc2n1` came in with a melting point of 177 to 180 °C.
Next, `ClC1=NN(c2ccccc2)CC1`: 92 to 93 °C.
In the case of `Cc1ccc(-c2ccc3c(c2)C=C(C(=O)O)CS3)cc1` it was 244 °C.
Next, `O=C1c2ccccc2C(=O)N1CCCCOc1ccc(-c2ccccc2)cc1`: 110 to 111 °C; `COc1cc(Nc2c(C#N)cnc3cc(Br)ccc23)c(Cl)cc1F`: 200 to 202 °C; `Clc1ccc2nc(CN3CCc4ccccc4C3)[nH]c2c1`: 204 to 206 °C.
In the case of `CCN(CC)CCN1C(=O)Nc2ccncc2C1c1ccccc1` (centres undefined), the melting point lay within 132 to 134 °C.
Next, `CCC(CC)Nc1cc(C)nc(Oc2c(C)cccc2C)c1N`: 98 to 100 °C.
`Cc1ccc(CON2C(C)(C)CC(O)CC2(C)C)cc1` came in with a melting point of 92.5 to 93 °C.
In the case of `COc1ccc(N2CCN(c3ccncc3)CC2)cc1` it was 165 to 167 °C; in that of `O=c1[nH]ncc2ccc(/C=C/c3ccc(O)cc3)cc12`, 305 to 308 °C; in that of `O=C(CN1C(=O)C(Cl)=C(Cl)C1=O)Nc1ccc(Cl)cc1`, 212 to 214 °C.
Next, `N#CC(Cl)CC(Cl)(Cl)C=O` (centres undefined): 49 to 50 °C.
Next, `O=S(=O)(NCCCN1CCOCC1)C(F)(F)F`: 95 to 97 °C; `Cn1c2ccccc2c2c(=O)n([C@@H]3CN4CCC3CC4)ccc21`: 251 to 252 °C; `CNC(=O)c1cc(-c2ccc(OC)cc2)nn(C)c1=O`: 150 to 151 °C.
Regarding `O=C1Nc2c(cc([N+](=O)[O-])cc2[N+](=O)[O-])C1c1ncnc2c1cnn2C1CCCC1` (centres undefined), the melting point lay in the range of 242 to 246 °C.
For the compound `CCNc1nc(C)c(C(=O)c2ccc(N)c(N)c2)s1`, the melting point lay in the range of 185 to 225 °C.
On to `Cc1ccccc1C(CCC(=O)O)Oc1cc(OCc2ccsc2)ccc1-c1cc(C(=O)O)on1` (racemic), for which the melting point fell in the range of 162 to 164 °C.
In the case of `CC(C(=O)O)n1cc(-c2ccccc2)c(=O)c(-c2cccc(C(F)(F)F)c2)c1` (centres undefined) it was 236 to 237 °C; in that of `CCC(=O)c1ccc(OC)c(C)c1C`, 39 to 40 °C; in that of `CC1=C(C(=O)OCC(Cl)(Cl)Cl)N2C(=O)C(NC(=O)Cc3ccccc3)C2SC1` (centres undefined), 162 °C.
Compound `O=C(O)c1cccc(C(=O)O)c1S(=O)(=O)Nc1ccc(F)cc1C(F)(F)F` returned a melting point of 250 to 254 °C.
On to `COc1cccc(C=C(NC=O)c2ccncc2)c1OC`, for which the melting point was 161 to 162 °C.
Next, `CCc1cn(C2CC(O)C(CNC(=O)CS(=O)(=O)c3ccccc3)O2)c(=O)[nH]c1=O` (centres undefined): 218 to 219 °C; `O=C(O)C1=Cc2cc(Cl)cc(Br)c2OC1C(F)(F)F` (centres undefined): 228 to 229 °C; `O=C(Cc1ccccc1)NC(C(=O)O)C(c1ccccc1)c1ccccc1` (centres undefined): 173 °C.
In the case of `N#CCCCCn1cnc(NC(=S)NCC(F)(F)F)n1` it was 136 to 138 °C.
With `Cc1noc(NS(=O)(=O)c2ccc(Cl)cc2Cl)c1Br`, the melting point fell in the range of 138 to 141 °C.
Next, `Cn1nc(-c2c(F)cc(Cl)c(=S)n2Cc2ccccc2)c(Cl)c1OC(F)F`: 135 to 138 °C.
The compound `COCC(=O)C1CCC2C3CCC4CC(=O)CCC4(C)C3CCC12C` (centres undefined) came in with a melting point of 156 °C.
`COc1ccc(CN2Cc3cncn3C(c3ccc(Br)cc3)C2=O)cc1` (centres undefined) registered a melting point of 123 to 124 °C.
Next, `Cc1cc2cnnc(OCc3ccccc3)c2n1Cc1ccccc1`: 124 °C.
In the case of `Cn1ccnc1CCNC(=O)c1ccccc1NS(=O)(=O)c1cccc(C(F)(F)F)c1` it was 127 to 129 °C; in that of `Cc1ccc(C(=O)NCc2ccncc2)cc1`, 227 °C.
Compound `CC(C)(O)CCCCc1ccc2ccccc2c1O` displayed a melting point of 101 to 102 °C.
Next, `COc1cccc([C@H]2O[C@H](CC#N)C(=O)N(CC(C)(C)C)c3ccc(Cl)cc32)c1OC`: 193 to 194 °C; `NN1CCN(CCc2c[nH]c3ccccc23)CC1`: 115 to 117 °C; `COc1cc(Nc2nc3cccc(-c4cncc5ccccc45)c3o2)cc(OC)c1OC`: 201 to 203 °C.
On to `Cc1ccccc1-n1cc(-c2ccccc2)c(CBr)n1`, for which the melting point is 67 °C.
Regarding `CC1CN(N)C(=O)N1C` (centres undefined), the melting point was in the range of 162 to 164 °C.
In the case of `N#Cc1cn(-c2ccc(C(F)(F)F)cc2)c(=O)[nH]c1=O` it was 230 to 232 °C; in that of `COc1c(C)c2c(c(C)c1NC(=O)CC(C)(C)C)C(c1ccc(C(C)C)cc1)CO2` (centres undefined), 162 to 163 °C.
`COc1cc2c(cc1F)C1(CO2)C(=O)N(CC2CCCO2)c2ccccc21` (centres undefined) showed a melting point of 106 to 116 °C.
In the case of `COc1cc(C(=O)c2ccccc2Cl)cc([N+](=O)[O-])c1O` it was 129 to 131 °C; in that of `COC(=O)C1CCCN(COS(C)(=O)=O)c2c1cc(O)c1ccccc21` (centres undefined), 113 to 115 °C; in that of `CC(=O)OCc1cn2c(n1)CN=C(c1ccccc1F)c1cc(Cl)ccc1-2`, 134 to 136 °C.
In turn, `CCCCOc1nc(N)c2[nH]c(=O)n(CCNc3cccc(CC(=O)OC)c3)c2n1` displayed a melting point of 222 to 223 °C.
In the case of `CC(C)(C)C(=O)Oc1ccc(-c2nnn(CCO)n2)cc1` it was 92 to 95 °C.
`Cc1ccc(S(=O)(=O)OCCCc2c[nH]c3ccc(F)cc23)cc1`: the melting point stood at 74 °C.
Next, `CN(C)c1nc(Br)cnc1NS(=O)(=O)c1cccc2c(N(C)C)cccc12`: 180 to 182 °C; `CC(=O)NCC[C@@H]1CCc2ccc3nn(C)c(Cl)c3c21`: 168 to 171 °C; `O=C(O)/C=C/n1cnc2ccccc2c1=O`: 250 to 254 °C.
`CC(C)(C)C(=O)c1ccc(S(=O)(=O)C[N+](=O)[O-])s1` showed a melting point of 98 to 99 °C.
In the case of `N#Cc1cnc2cc3c(cc2c1Nc1cccc(Br)c1)OCO3` it was 201 to 205 °C.
In the case of `CCC(C(=O)OC)[C@@H](C)O` (some centres undefined) it was 72.4 to 73.3 °C; in that of `COCC1CN(c2ccc(C3CCC(=C(C)C)CC3)cc2)C(=O)O1` (racemic), 89 to 91 °C; in that of `O=C(Nc1ccccc1O)C1CCc2nc[nH]c2C1` (centres undefined), 203 to 205 °C.
In the case of `Cc1cnc(CCc2ccccc2)n2c1c(CCCl)c1ccccc12` it was 144 to 145 °C; in that of `CCOC(=O)C(C)=C(CC)NC(=O)Nc1cc(OC(C)C)c(Cl)cc1F`, 104 to 106 °C.
Take `N#CC(C(N)=O)c1ccccc1` (centres undefined): the melting point was in the range of 148 to 150 °C.
Next, `Cc1nc(C=O)cn1Cc1ccccc1`: 57 to 60 °C; `Cn1c(C(F)(F)F)cc(=O)n(-c2cc(OCCC3OCCO3)c(Cl)cc2F)c1=O`: 125 to 127 °C.
In the case of `C[C@]12C(=O)[C@]3(C)O[C@]3(C)C(=O)[C@H]1[C@H]1C=C[C@@H]2C1` (racemic) it was 72 to 73 °C.
`Cc1c(Br)c2c(c(C)c1NC(=O)OC(C)(C)C)C(N(C)C)C(C)(C)O2` (centres undefined) came in with a melting point of 111 to 112 °C.
Turning to `O=C1CCC(N2CCN(Cc3ccccc3)CC2)CC1`, the melting point fell in the range of 83 to 85 °C.
In the case of `O=C1Cc2cc3c(cc2C(c2ccco2)=NN1)OCO3` it was 234 to 236 °C; in that of `CCOCc1nc2c(N)nc3cc(OCCCN4CCCC4=O)ccc3c2n1CCCCNC(=O)OC(C)(C)C`, 134 to 136 °C.
As to `COC(=O)Nc1nc2cnc3ccccc3c2n1CC(C)(C)O`, the melting point came out at 225 °C.
Next, `Cc1nc(N2CCN(Cc3ccccc3)C2=O)sc1C(=O)NCc1ccccc1`: 169 to 171 °C; `COc1ccc(-c2cc(=O)n(C)c(=O)[nH]2)cc1OC`: 262 to 263 °C; `Cc1cccc2c(Cl)cc(C(F)(Cl)Cl)nc12`: 90 to 94 °C.
On to `O=c1[nH]c2ccccc2n1CCN1CCC(Nc2nc3cccnc3n2CCOCCO)CC1`, for which the melting point turned out to be 177 °C.
In the case of `CCOC(=O)N1CCC(=NO)c2cc(F)ccc21` it was 122 to 124 °C; in that of `Cc1cccc(C)c1N(CCCCCCc1cccnc1)C(=O)C(C)N1C(=O)c2ccccc2C1=O` (centres undefined), 113 to 115 °C; in that of `CC(C)NC(=O)N1CCc2[nH]cnc2C1c1cccnc1` (centres undefined), 237 °C.
The compound `CCn1ncnc1COc1nn2c(-c3cc(F)ccc3F)nncc2c1C(C)(C)C` yielded a melting point of 108 °C.
Next, `CC(=O)Cc1ccc(Oc2ccc(C(F)(F)F)cc2)cc1`: 88 to 90 °C; `COP(=O)(Cc1ccc(NC(=O)/C=C/c2cnn(C)c2-c2ccoc2)cc1)OC`: 176 to 177 °C.
`O=C(O)c1cc2c(C(F)(F)F)cccc2s1` came in with a melting point of 178 to 179 °C.
Compound `COc1ccc(-c2cc3ccccc3[nH]2)cc1O` registered a melting point of 217 °C.
The compound `CN1CC2CC(=O)CC(C1)N2C` showed a melting point of 72 to 73 °C.
In the case of `CC(Cc1cc(-c2ccccc2)nc2ccccc12)C(=O)O` (centres undefined), the melting point was determined as 185 °C.
Next, `COC(=O)c1ccc(-c2nc(-c3cc(C)sc3C)cs2)cc1`: 109 to 110 °C; `N#CCCNC(=O)c1cccc(-c2cccc3sc(Cc4ccc(F)c(F)c4)cc23)c1`: 123 to 124 °C; `O=C1COC(=O)C1=Cc1ccc(C(=O)O)s1`: 255 to 268 °C.
Next, `Cc1cc(N=CN(C)C)c(C)cc1O`: 212 °C; `Cc1cc(C)c(C2C(=O)NC3(CCN(N(C)C)CC3)C2=O)c(C)c1` (centres undefined): 237 to 241 °C.
Next, `O=C(O)c1cc(S(=O)(=O)NC2CCCCC2)cc2c1OCCO2`: 150 °C; `CN(C)C(=O)c1ccc(S(=O)(=O)c2ccc(NC(=O)[C@@](C)(O)C(F)(F)F)c(Cl)c2)cc1`: 120 °C.

The values are drawn from a melting point compilation (Tetko et al.; mined from patent text by program, amines drawn as free bases though some values may be those of a salt).
